Data as given in patent publication US20080038321A1, “PROPHYLACTIC/THERAPEUTIC COMPOSITIONS FOR LIVER DISEASES” (Ajinomoto Co., Inc., priority 2004, published 2008).
“Also recorded” adds a separate entry of the source.

Legend:
[1] = system: HNF-4α; experiment: HNF-4α mRNA in Fao cells with L-Asp, L-Ala or both (quantitative PCR); format: cell-based, rat; conditions: 3 h, L-Asp 0.05 mM, L-Ala 0.03 mM or both
Method: (§1) Whether the suppressive effect of L-Asp on TRB3 expression in rat hepatocyte-derived Fao cells is increased by adding L-Ala as another amino acid was studied. Whether the expression of HNF-4α is increased was also studied. Fao cells were inoculated on a 24-well plate to an amount of 2×10^5 cells/well, and the cells were cultivated in a 10% fetal bovine serum-containing RPMI 1640 medium (supplied from Nacalai Tesque, Inc.; Code No. 30264-85) at 37° C. in an atmosphere of 5% CO2 overnight. On the following day, the medium was replaced with one of a 10% fetal bovine serum-containing RPMI medium from which all amino acids had been removed (minus amino acid medium; Table 1) and media corresponding to the minus amino acid medium, except with L-Asp (concentration: 0.05 mM), L-Ala (concentration: 0.03 mM), or both added, and the cells were further cultivated at 37° C. in 2.5% CO2 atmosphere for three hours. RNAs were extracted from the cultured cells, and the TRB3 mRNA levels and the HNF-4α mRNA levels were determined through quantitative polymerase chain reaction (PCR) (Table 10).

[2] = system: G6Pase; experiment: Liver gene expression in GK rats after 8 weeks L-Asp diet (quantitative PCR): G6Pase; format: in vivo, rat; conditions: 3% L-Asp diet (3AS), CON group = 1.00
Method: (§5) Specifically, L-Asp as mixed in a diet was administered to GK rats over a long time, and the effect of the administration on gene expression in the liver and disease state was determined.
(§6) Male 6-week-old GK rats were purchased, pre-fed for one week, grouped into the following groups each including five rats, the diet was replaced with experimental diets, and the rats were fed with the experimental diets for eight weeks.
On week eight of administration, the liver was extirpated after eighteen-hour fasting, RNAs were extracted, and the gene expressions were determined through quantitative PCR and compared.

[3] = system: TRB3; experiment: Suppressive effects of amino acids on TRB3 expression in cultured hepatocytes (Fao cells, quantitative PCR); format: cell-based, rat; conditions: 3 h, minus amino acid medium plus one L-amino acid 1 mM (or standard medium), mRNA, minus amino acid medium = 1.00, n = 4, mean ± SD
Method: Suppressive effects of twenty-two amino acids on TRB3 expression in rat hepatic cancer-derived Fao cells were examined.
The standard medium is a medium corresponding to the minus amino acid medium, except for further containing amino acids listed in Table 2.
RNAs were extracted from the cultured cells, the expression levels of TRB3 gene were determined through quantitative polymerase chain reaction (PCR), and the suppressive effects of amino acids on TRB3 expression were determined and compared with data of TRB3 expression induced upon amino acid starvation. The gene expression was corrected with reference to β-actin expression level. The correction was carried out in the same manner in the after-mentioned genes.
The data were corrected and expressed while taking the average of TRB3 mRNA levels after three-hour cultivation in the minus amino acid medium as 1.00.

[4] = system: Wistar rats fed with high-fat diets; experiment: Wistar rats fed with high-fat diets: body weight and liver triglyceride; format: in vivo, rat
Text: Pharmacological actions of L-Asp were identified using Wistar rats fed with high-fat diets.
These triglyceride contents were converted into total triglyceride contents in the entire liver.

[5] = system: stearoyl-Coenzyme A desaturase 1 (SCD1) gene; experiment: Liver gene expression profiling in GK rats (Gene Chip Rat Genome U34A Array): SCD1; format: in vivo; conditions: 8 weeks, CON group = 1.00
Method: (§2) Gene expression profiling was conducted using samples containing equivalent amounts of genes in the liver of individuals in the individual groups. The gene expression profiling was carried out with the Gene Chip Rat Genome U34A Array (Affymetrix Inc.). […] This is because the two genes relate to steatogenesis.
(§3) The mRNA levels are expressed while defining the level in the CON group as 1.00.

[6] = system: TRB3; experiment: TRB3 mRNA in Fao cells with L-Asp, L-Ala or both (quantitative PCR); format: cell-based, rat; conditions: 3 h, L-Asp 0.05 mM, L-Ala 0.03 mM or both
Method: as §1

[7] = system: G6Pase; experiment: Liver gene expression in high-fat diet GK rats after 6-week administration (quantitative PCR): G6Pase; format: in vivo, rat
Text: (§4) The mRNA levels are expressed while defining the level in the SD group as 1.00. <Primer Sequence>

[8] = system: malic enzyme (ME) gene; experiment: Liver gene expression profiling in GK rats (Gene Chip Rat Genome U34A Array): ME; format: in vivo; conditions: 8 weeks, CON group = 1.00
Method: as §2, §3

[9] = system: GK rats fed with high-fat diets; experiment: GK rats fed with high-fat diets: body weight, fasting glucose, insulin, triglyceride, liver triglyceride
[10] = system: GK rats; experiment: Long-term L-Asp in diet to GK rats: fasting blood glucose and insulin; format: in vivo, rat; conditions: 3% L-Asp-containing diet (3AS), 6 weeks, n = 5, mean ± SD
Method: as §5, §6
CON group: administered with a control diet
3AS group: administered with a 3% L-Asp-containing diet
6AS group: administered with a 6% L-Asp-containing diet
The fasting blood glucose level is generally considered to be an index reflecting the basal insulin secretion and the insulin resistance.

[11] = system: PPAR-alpha; experiment: Liver gene expression in high-fat diet GK rats after 6-week administration (quantitative PCR): PPAR-alpha; format: in vivo, rat
Text: as §4

[12] = before administration (baseline), HFD with about 6% L-Asp or 0.01% pioglitazone
[13] = week 3, HFD with about 6% L-Asp or 0.01% pioglitazone
[14] = week 6, HFD with about 6% L-Asp or 0.01% pioglitazone

In the case of `N[C@@H](CC(=O)O)C(=O)O` [L-Asp, L-aspartic acid], the “expression level of HNF-4α mRNA” value [1] is reported as 1.3 time, the “HNF4α mRNA level” value ([1]; minus amino acid medium = 1.00) is reported as 1.30 and the “G6Pase mRNA level in liver” value [2] is reported as 0.99 ± 0.15. For the same compound, the TRB3 expression level [3] was 0.724 ± 0.13, the TRB3 expression level ([3]; listed as aspartic acid) was “significantly suppressed TRB3 expression” and the Body weight ([4]; before administration (baseline), HFD plus about 6% L-Asp, n = 6) was 328 ± 9 g. The triglyceride content ([4]; four weeks, HFD plus Asp group, HFD group 57.6) was 43.4 mg per 1 g of the liver, the “total triglyceride content in the liver” value ([4]; four weeks, HFD plus Asp group, HFD group 1047.5) was 743.4 mg and the “Triglyceride content in liver” value ([4]; week 4, HFD plus about 6% L-Asp) was 43 ± 10 mg/g. The Body weight ([4]; week 4, HFD plus about 6% L-Asp, n = 6) was “tended to have a decreased body weight”, the Body weight ([4]; week 4, HFD plus about 6% L-Asp, n = 6, listed as Asp) was 474 ± 20 g and the “SCD1 mRNA level in liver” value ([5]; 3% L-Asp diet (3AS)) was 0.78. For the same compound, the “SCD1 mRNA level in liver” value ([5]; 6% L-Asp diet (6AS)) was 0.71, the “TRB3 mRNA level” value ([6]; minus amino acid medium = 1.00) was 0.54 and the “expression level of TRB3 mRNA” value ([6]; of minus amino acid medium) was 54%. The “G6Pase mRNA level in liver” value ([7]; HFD + Asp, HFD = 1.00 in table, n = 6, mean) was 0.52, the “G6Pase expression relative to HFD group” value ([7]; HFD plus Asp group) was 0.52 time and the “ME mRNA level in liver” value ([8]; 3% L-Asp diet (3AS)) was 0.55. The “ME mRNA level in liver” value ([8]; 6% L-Asp diet (6AS)) was 0.62, the “lipid droplet accumulation around the hepatic portal vein region (histological study)” value ([9]; HFD plus Asp group) was “improved (reduced) lipid droplet accumulation” and the “increase in fasting blood glucose level and fasting plasma insulin level (insulin resistance)” value ([9]; HFD plus Asp group compared with HFD group) was “less increase in these parameters; also recorded: substantially equivalent to that of the pioglitazone group”. The fasting plasma triglyceride ([9]; HFD plus Asp group compared with SD group) was “decreased fasting plasma triglyceride”, the “Fasting blood glucose level” value [9, 12] was 100 ± 8 mg/dL and the Fasting insulin level [9, 12] was 0.5 ± 0.3 ng/mL. The Fasting triglyceride level [9, 12] was 92 ± 20 mg/dL, the “Fasting blood glucose level” value [9, 13] was 124 ± 7 mg/dL and the Fasting insulin level [9, 13] was 1.6 ± 0.4 ng/mL. The Fasting triglyceride level [9, 13] was 77 ± 14 mg/dL, the “Fasting blood glucose level” value [9, 14] was 110 ± 10 mg/dL and the Fasting insulin level [9, 14] was 1.5 ± 0.2 ng/mL. The Fasting triglyceride level [9, 14] was 70 ± 16 mg/dL, the “Triglyceride content in liver” value [9, 14] was 28 ± 5 mg/g and the “Fasting blood glucose level” value [10] was 151 ± 4.8 mg/dL. For the same compound, the “PPARα mRNA level in liver” value ([11]; HFD + Asp, 6-week administration, HFD = 1.00 in table, n = 6, mean) was 1.34 and the PPAR-alpha gene expression ([11]; L-Asp administration, 6 weeks, HFD) was 1.34 time.
